Laboratory results from US12077524B2, “Crystal of pyrrolidine compound” (MITSUBISHI TANABE PHARMA CORPORATION, priority 2018, dated 2024).
Counter-ions that a name gives are not always drawn. Like-named read-outs stand apart in the source and are kept apart here.

Columns and labels:
Type in all cases: physicochemical
[1] = Thermal stability evaluation (TG/DTA); details: for Thermal stability TG: weight change: 10 K/min, nitrogen
Method: Thermal stability was evaluated by using a thermogravimetry/differential thermal analyzer TG/DTA7200 (SII NanoTechnology Inc.) under the following conditions. • Rate of temperature increase: 10 K/min • Atmosphere: nitrogen 200 mL/min <Hygroscopicity or Deliquescency Evaluation>

[2] = Hygroscopicity or deliquescency evaluation (moisture adsorption, DVS)
Method: Hygroscopicity or deliquescency was evaluated as follows by using a moisture adsorption measurement device DVS-1 or DVS-intrinsic (Surface Measurement Systems Limited). Each sample was placed into a cell of which the tare weight had been corrected in advance, and the cell was hung on the precision balance of said device to precisely measure the weight at the start of measurement. The humidity was changed in a stepwise manner, the weight change was recorded with time, and the equilibrium weight was calculated at each humidity. On the basis of the weight of anhydride converted from the amount of water at a dried condition (0% RH) or at the start of measurement observed by an alternative method, the weight change rate at each humidity was calculated.

[3] = Chemical stability evaluation (storage 1 week, related substances by HPLC, observation of sample)
Method: Each sample was stored at 60° C. under a sealed condition and at 60° C. under 75% RH for 1 week, an increase or decrease of related substances after the storage was calculated by high-performance liquid chromatographic method on the basis of the area percentage of each peak. Also, the condition of each sample after the storage was observed.

COC[C@H]1CN(C(=O)[C@]2(F)CN(C3CCCC3)C[C@H]2c2ccc(OC)cc2)C[C@@H]1c1ccc(C(F)(F)F)cc1N1CCC(C(=O)O)CC1 [Amorphous of free form, 1-{2-[(3S,4R)-1-[(3R,4R)-1-cyclopentyl-3-fluoro-4-(4-methoxyphenyl)pyrrolidine-3-carbonyl]-4-(methoxymethyl)pyrrolidin-3-yl]-5-(trifluoromethyl)phenyl}piperidine-4-carboxylic acid]
Thermal stability TG: weight change ([1]; 30-130° C.): 2.2% | Hygroscopicity or Deliquescency: Weight change under 90% RH [2]: 1.8%

COC[C@H]1CN(C(=O)[C@]2(F)CN(C3CCCC3)C[C@H]2c2ccc(OC)cc2)C[C@@H]1c1ccc(C(F)(F)F)cc1N1CCC(C(=O)O)CC1 [Amorphous of hydrochloride, 1-{2-[(3S,4R)-1-[(3R,4R)-1-cyclopentyl-3-fluoro-4-(4-methoxyphenyl)pyrrolidine-3-carbonyl]-4-(methoxymethyl)pyrrolidin-3-yl]-5-(trifluoromethyl)phenyl}piperidine-4-carboxylic acid]
Thermal stability TG: weight change ([1]; 30-150° C.): 4.8% | Deliquescency [2]: deliquescent | Hygroscopicity or Deliquescency: Weight change under 90% RH [2]: 11.87% | Deliquescency ([2]; listed as hydrochloride of the Pyrrolidine compound A): has deliquescency | Hygroscopicity or Deliquescency: observation (deliquescent) ([2]; under 90% RH): deliquescent | Chemical stability: condition of sample after the storage ([3]; 60° C., 75% RH, 1 week): deliquescent

COC[C@H]1CN(C(=O)[C@]2(F)CN(C3CCCC3)C[C@H]2c2ccc(OC)cc2)C[C@@H]1c1ccc(C(F)(F)F)cc1N1CCC(C(=O)O)CC1 [Crystal of free form, 1-{2-[(3S,4R)-1-[(3R,4R)-1-cyclopentyl-3-fluoro-4-(4-methoxyphenyl)pyrrolidine-3-carbonyl]-4-(methoxymethyl)pyrrolidin-3-yl]-5-(trifluoromethyl)phenyl}piperidine-4-carboxylic acid]
Chemical stability [3]: poor

COC[C@H]1CN(C(=O)[C@]2(F)CN(C3CCCC3)C[C@H]2c2ccc(OC)cc2)C[C@@H]1c1ccc(C(F)(F)F)cc1N1CCC(C(=O)O)CC1 [Present crystal, 1-{2-[(3S,4R)-1-[(3R,4R)-1-cyclopentyl-3-fluoro-4-(4-methoxyphenyl)pyrrolidine-3-carbonyl]-4-(methoxymethyl)pyrrolidin-3-yl]-5-(trifluoromethyl)phenyl}piperidine-4-carboxylic acid]
Thermal stability TG: weight change ([1]; 30-230° C.): No change | Weight change on heating ([1]; even at 200° C. or more): did not show a weight change | Deliquescency ([2]; listed as Phosphoric acid Form B crystal): not deliquescent
